≈ marks a conversion by molar mass, not a printed value.
Assays:
Vero cells = assay: Mammalian cytotoxicity, MTT assay in Vero cells; type: cell-based; settings: 48 h; for IC50: Chlorocebus sabaeus
Experimental: Grade IV SF268 glioblastoma cells and Vero epithelial cells were obtained from ATCC and cultured in complete medium consisting of Roswell Park Memorial Institute medium (RPMI-1640) supplemented with 0.05% gentamicin (50 mg/mL) and 10% FBS (fetal bovine serum; Gibco, Invitrogen, Carlsbad, CA, USA). Cultures were maintained at 37 °C in a 5% CO2 atmosphere and split by trypsin treatment once per week to maintain confluence.
For the cytotoxicity assays, Vero cells were cultivated in 96-well plates at 37 °C under a 5% CO2 atmosphere using RPMI-1640 medium with 0.05% gentamicin (50 mg/mL) and 10% FBS (fetal bovine serum). Vero cells were allowed to adhere for 24 h before being incubated for 48 h with the samples. During the treatment, dimethyl sulfoxide (DMSO) was used as a negative control, curcumin (1) was used as a control, and samples were assayed at four different concentrations. After incubation, MTT (3-(4,5-di-methyl-thiazol-2-yl)-2,5-diphenyl-tetrazolium bromide) was added to each well, and the absorbance at 570 nm was determined 4 h later using a color plate reader. Cytotoxicity was evaluated colorimetrically by calculating the ability of the remaining living Vero cells to reduce the pale yellow MTT to the black–purple formazan product, as previously described. All bioassays were performed in duplicate, and the inhibitory concentration (IC50) values were determined using the Data Analysis complement Wizard of Excel 2000 (Microsoft, Seattle, WA, USA).

SF268 glioblastoma cells = assay: MTT cytotoxicity in the glioblastoma cell line SF268 (single-concentration screening and IC50); type: cell-based, Human; settings: for activity at 10 µg/mL / IC50: Homo sapiens; for activity at 10 µg/mL: SF-268, 48 h, read-out: Growth Screening (%RG); for activity at 10 µg/mL / Growth Screening (%RG): SF268, single concentration 10 µg/mL, 48 h, percentage of relative growth; for IC50: SF-268; for Selectivity Index (SI): Vero versus SF268
Experimental: Cultures were maintained at 37 °C in a 5% CO2 atmosphere and split by trypsin treatment once per week to maintain confluence.
RPMI without cells was used as a color control, and doxorubicin was used as an inhibition control. After treatment, MTT was added to each well, and the absorbance at 570 nm was determined 4 h later using a color plate reader. All bioassays were performed in duplicate, and the IC50 values were determined by the Data Analysis complement Wizard of Excel 2000 (Microsoft, Seattle, WA, USA).

SF268 cell microtubules = assay: Immunofluorescence staining of microtubules in SF268 cells; type: cell-based, Human; settings: SF268, 10 µg/mL, 24 h / 12 h, versus DMSO control
Experimental: SF268 cells were seeded onto 96-well plates and allowed to adhere overnight in complete growth medium (RPMI-1640).
After treatment, the cells were rinsed two times with PBS, fixed in 4% paraformaldehyde (15 min), and permeabilized with 0.5% Triton X-100 (Sigma Aldrich, St. Louis, MO, USA) (5 min). Nonspecific binding was blocked with 5% bovine serum albumin (BSA) in phosphate-buffered saline (PBS) for 1 h. […] Nuclei were counterstained with Hoechst 33342 (15 min), washed 2 times with PBS, and left in PBS at 4 °C in the dark.
Fluorescence images were acquired with an Olympus IX70 microscope (Olympus, Tokyo, Japan) using a 60× objective with identical exposure settings for all conditions. Microtubule density and organization were acquired and analyzed using β-tubulin signals in HCImage Hamamatsu (version 4.8) and ImageJ (version 1.54).
SF268 cells were exposed to media containing either DMSO as a control or curcumin derivatives at 10 μg/mL for 24 h, after which the microtubules were visualized with an α tubulin antibody (yellow), and the cell nuclei were stained with Hoechst (blue).
The cells were then stained with a β-tubulin antibody (yellow) and Hoechst dye (blue) to visualize the nucleus.

Porcine tubulin = target: T1, Porcine tubulin (Sus scrofa, UniProt P02550+P02554); assay: In vitro tubulin polymerization assay (cell-free kit); type: biochemical; settings: 10 µg/mL, 1 h at 37 °C, versus DMSO control
T1 construct: purchased Cytoskeleton Inc., Denver, CO, USA BK011P; host or cells: porcine neural tissue (tissue-purified; that it is brain is my own knowledge of the kit)
T1 sequence (P02550 whole entry): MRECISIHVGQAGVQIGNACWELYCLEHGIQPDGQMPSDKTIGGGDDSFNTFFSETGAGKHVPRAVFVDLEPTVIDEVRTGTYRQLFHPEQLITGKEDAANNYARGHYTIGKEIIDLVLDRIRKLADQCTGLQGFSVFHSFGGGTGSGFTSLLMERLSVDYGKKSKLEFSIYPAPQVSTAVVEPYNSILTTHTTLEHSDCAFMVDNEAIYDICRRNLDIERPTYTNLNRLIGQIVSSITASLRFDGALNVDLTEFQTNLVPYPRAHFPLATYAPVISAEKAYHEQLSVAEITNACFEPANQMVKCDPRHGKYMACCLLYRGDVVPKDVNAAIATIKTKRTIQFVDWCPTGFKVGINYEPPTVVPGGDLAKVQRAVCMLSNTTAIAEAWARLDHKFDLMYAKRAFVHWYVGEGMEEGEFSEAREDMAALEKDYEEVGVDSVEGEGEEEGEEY
T1 sequence (P02554 whole entry): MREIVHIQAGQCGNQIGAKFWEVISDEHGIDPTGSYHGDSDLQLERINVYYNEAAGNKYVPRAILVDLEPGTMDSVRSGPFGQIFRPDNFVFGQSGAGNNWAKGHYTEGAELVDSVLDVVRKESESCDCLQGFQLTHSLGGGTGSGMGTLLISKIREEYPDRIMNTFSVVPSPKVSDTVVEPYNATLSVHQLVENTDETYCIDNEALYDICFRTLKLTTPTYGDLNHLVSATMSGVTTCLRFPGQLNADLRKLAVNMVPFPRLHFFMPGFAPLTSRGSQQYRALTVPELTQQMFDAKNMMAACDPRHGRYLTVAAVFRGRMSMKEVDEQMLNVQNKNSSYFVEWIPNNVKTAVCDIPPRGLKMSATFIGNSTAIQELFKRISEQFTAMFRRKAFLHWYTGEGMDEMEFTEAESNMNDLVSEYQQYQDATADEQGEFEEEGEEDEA
Experimental: A Tubulin Polymerization Assay Kit (Porcine tubulin and Fluorescence-based; Cat. # BK011P) (Cytoskeleton Inc., Denver, CO, USA) was used. Neural tubulin (>99% pure cytoskeleton) and tubulin polymerization buffer were mixed with 10 µg/mL curcumin derivatives or the vehicle DMSO at 37 °C in a preheated 96-well plate. The measurement of […] was immediately initiated using a Bio-Tek Synergy HT plate reader (one reading per minute for 1 h, according to the kit instructions). The rate of tubulin polymerization (milli-OD340 units per min) was then calculated for each sample from the linear portion of the kinetics curve, and group mean rates were analyzed for statistical significance.
We used a fluorescence cell-free-based assay to analyze the ability of curcumin to inhibit tubulin polymerization into microtubules in vitro. […]
Figure 5 (A) Tubulin polymerization of compounds 1, 2, 3, 4, 6, and 11. Tubulin polymerization was monitored by the increase in fluorescence at 360 nm (excitation) and 420 nm (emission) for 1 h at 37 °C. […]
The tubulin polymerization activities were determined by measuring fluorescence and recording the area under the curve (AUC). Increasing fluorescence indicates increasing polymerization activity, whereas decreasing fluorescence indicates greater depolymerization activity.

[1] = system: mitochondrial membrane potential of SF268 cancer cells; assay: Mitochondrial membrane potential measurement with DiOC6; type: cell-based, Human; settings: 10 µg/mL, 6 h, versus DMSO control
Experimental: Changes in membrane potential were measured by staining cultured cells with the mitochondrial selective dye 3,3′-dihexyloxacarbocyanine (DiOC6) at 10 nM (Thermo Fisher, Waltham, MA, USA). The samples were incubated at 10 μg/mL for 6 h at 37 °C and then stained for 20 min with DiOC6 in the dark. Following incubation, the cells were washed, and the green fluorescence intensity of the DiOC6-stained cells was analyzed with a fluorometer immediately after staining. Incubation for 1 h with the mitochondrial membrane disruptor CCCP, carbonyl cyanide m-chlorophenylhydrazone (50 μM final concentration), was used as a positive control.
Changes in the mitochondrial membrane potential, a common hallmark of programmed cell death, were analyzed in samples with promising activities toward CNS cell line growth. We examined the effects of these compounds on the mitochondrial membrane potential using the dye DiOC6, a fluorophore that accumulates rapidly and selectively inside mitochondria depending on the membrane potential.
Figure 6 Changes in mitochondrial membrane potential caused by the compounds. Fluorometry was used to measure the mitochondrial effects of compounds that inhibited cell growth in culture. A membrane disruptor (CCCP) was added as a positive control, and untreated cultures (DMSO) were used as a negative control. […]

| Molecule | IC50 (Vero cells) [µg/mL] | activity at 10 µg/mL (SF268 glioblastoma cells; MTT) [%] | IC50 (SF268 glioblastoma cells; SF268, 48 h, MTT) [µg/mL] | also measured |
| --- | --- | --- | --- | --- |
| COC(=O)CCC(=O)Oc1ccc(/C=C/C(=O)/C=C(O)/C=C/c2ccc(O)c(OC)c2)cc1OC [Compound 6] | 12.9 (≈ 26.7 µM) | ≤ 40 | 0.833 (≈ 1.73 µM) | Selectivity Index (SI) (SF268 glioblastoma cells): 15.45; microtubule density and organization (SF268 cell microtubules): significant reduction in microtubule density |
| COc1cc(/C=C/C(O)=C/C(=O)/C=C/c2ccc(OC(=O)CCC(=O)OC3C4CC5CC(C4)CC3C5)c(OC)c2)ccc1O (stereo not shown) [Compound 9] |  | 45.6 |  |  |
| COc1cc(/C=C/C(O)=C/C(=O)/C=C/c2ccc(OC(=O)CCC(=O)OC3CCCc4ccccc43)c(OC)c2)ccc1O (stereo not shown) [Compound 17] |  | 46.8 |  |  |
| COc1cc(/C=C/C(=O)/C=C(O)/C=C/c2ccc(OC(=O)CCC(=O)OC3c4ccccc4-c4ccccc43)c(OC)c2)ccc1OC(=O)CCC(=O)OC1c2ccccc2-c2ccccc21 [Compound 20] |  | 63 |  |  |
| COc1cc(/C=C/C(O)=C/C(=O)/C=C/c2ccc(OC(=O)CCC(=O)OCc3ccc4c(c3)C(=O)c3ccccc3C4=O)c(OC)c2)ccc1O [Compound 22] | 72.8 (≈ 106 µM) | ≤ 40 | 58.9 (≈ 85.5 µM) | Selectivity Index (SI) (SF268 glioblastoma cells): 1.19 |
| COc1cc(/C=C/C(O)=C/C(=O)/C=C/c2ccc(OC(=O)CCC(=O)OC(c3ccccc3)c3ccccc3)c(OC)c2)ccc1O [Compound 21] | 46 (≈ 72.5 µM) | ≤ 40 | 36.4 (≈ 57.4 µM) | Selectivity Index (SI) (SF268 glioblastoma cells): 1.26 |
| COc1cc(/C=C/C(O)=C/C(=O)/C=C/c2ccc(OC(=O)CCC(=O)OC(c3ccccc3)C3CCCCC3)c(OC)c2)ccc1O (stereo not shown) [Compound 15] |  | 47.9 |  |  |
| 1,7-bis(4-hydroxy-3-methoxyphenyl)hepta-1,6-diene-3,5-dione [Compound 1, reference compound] |  |  |  | IC50 VERO (Vero cells): 15.9 µg/mL; IC50 SF268 (SF268 glioblastoma cells; SF268, 48 h, MTT): 6.3 µg/mL |
| C=CCOC(=O)CCC(=O)Oc1ccc(/C=C/C(=O)/C=C(O)/C=C/c2ccc(OC(=O)CCC(=O)OCC=C)c(OC)c2)cc1OC [Compound 12, Diallyl O,O′-(((1E,3Z,6E)-3-hydroxy-5-oxohepta-1,3,6-triene-1,7-diyl)bis(2-methoxy-4,1-phenylene)) disuccinate] |  | 49.2 |  |  |
| COc1cc(/C=C/C(O)=C/C(=O)/C=C/c2ccc(OC(=O)CCC(=O)OC3c4ccccc4-c4ccccc43)c(OC)c2)ccc1O [Compound 19] | 15.2 (≈ 24 µM) | ≤ 40 | 1.11 (≈ 1.75 µM) | Selectivity Index (SI) (SF268 glioblastoma cells): 13.71 |
| COc1cc(/C=C/C(=O)/C=C(O)/C=C/c2ccc(OC(=O)CCC(=O)OC3C4CC5CC(C4)CC3C5)c(OC)c2)ccc1OC(=O)CCC(=O)OC1C2CC3CC(C2)CC1C3 (stereo not shown) [Compound 10] |  | 52 |  |  |
| COc1cc(/C=C/C(=O)/C=C(O)/C=C/c2ccc(OC(=O)CCC(=O)OCc3ccccc3)c(OC)c2)ccc1OC(=O)CCC(=O)OCc1ccccc1 [Compound 14, Dibenzyl O,O′-(((1E,3Z,6E)-3-hydroxy-5-oxohepta-1,3,6-triene-1,7-diyl)bis(2-methoxy-4,1-phenylene)) disuccinate] |  | 85.1 |  |  |
| [Ca+2].[Cl-].[Cl-] [calcium chloride] |  |  |  | tubulin polymerization (fluorescence, AUC) (Porcine tubulin): significant decrease in the AUC |
| COc1cc(/C=C/C(=O)/C=C(O)/C=C/c2ccc(OC(C)=O)c(OC)c2)ccc1OC(C)=O [Compound 4, (1E,3Z,6E)-3-hydroxy-5-oxohepta-1,3,6-triene-1,7-diyl)bis(2-methoxy-4,1-phenylene) diacetate] | 42.1 | ≤ 40 | 2.45 | Selectivity Index (SI) (SF268 glioblastoma cells): 17.16 |
| Cyclopentyl (4-((1E,3Z,6E)-3-hydroxy-7-(4-hydroxy-3-methoxyphenyl)-5-oxohepta-1,3,6-trien-1-yl)-2-methoxyphenyl) succinate [Compound 5] |  |  |  | IC50 VERO (Vero cells): 12.6 µg/mL; Growth Screening (%RG) (SF268 glioblastoma cells; MTT): 50.81% |
| COc1cc(/C=C/C(O)=C/C(=O)/C=C/c2ccc(OC(C)=O)c(OC)c2)ccc1O [Compound 3] | 13.2 (≈ 32.2 µM) | ≤ 40 | 0.88 (≈ 2.14 µM) | mitochondrial membrane potential (DiOC6 fluorescence intensity) [1]: lowest fluorescence intensity |
| COc1cc(/C=C/C(=O)/C=C(O)/C=C/c2ccc(OC(=O)CCC(=O)OC(c3ccccc3)C3CCCCC3)c(OC)c2)ccc1OC(=O)CCC(=O)OC(c1ccccc1)C1CCCCC1 (stereo not shown) [Compound 16] |  | 57.2 |  |  |
| COc1cc(C=CC(=O)C=C(O)C=Cc2ccc(OC(=O)CCC(=O)OC3CC(C)CCC3C(C)C)c(OC)c2)ccc1OC(=O)CCC(=O)OC1CC(C)CCC1C(C)C (stereo not shown) [Compound 8] |  | 55.2 |  |  |
| Benzyl (4-((1E,3Z,6E)-3-hydroxy-7-(4-hydroxy-3-methoxyphenyl)-5-oxohepta-1,3,6-trien-1-yl)-2-methoxyphenyl) succinate [Compound 13] |  |  |  | Growth Screening (%RG) (SF268 glioblastoma cells; MTT): 49.88% |
| COc1cc(/C=C/C(O)=C/C(=O)/C=C/c2ccc(OC(=O)CCC(=O)O[C@@H]3C[C@H](C)CC[C@H]3C(C)C)c(OC)c2)ccc1O [Compound 7] |  | 50.9 |  |  |
| COc1cc(/C=C/C(O)=C/C(=O)/C=C/c2ccc(OCc3ccccc3)c(OC)c2)ccc1O [Compound 2] | 11.9 (≈ 26 µM) |  | 3.97 (≈ 8.65 µM) | microtubule density and organization (SF268 cell microtubules): significant reduction in microtubule density |
| COc1cc(/C=C/C(=O)/C=C(O)/C=C/c2ccc(OC(=O)CCC(=O)OC3Cc4ccccc4C3)c(OC)c2)ccc1OC(=O)CCC(=O)OC1Cc2ccccc2C1 [Compound 18] |  | 62.9 |  |  |
| CC(=O)O[C@H]1C(=O)[C@@]2(C)[C@H]([C@H](OC(=O)c3ccccc3)[C@]3(O)C[C@H](OC(=O)[C@H](O)[C@@H](NC(=O)c4ccccc4)c4ccccc4)C(C)=C1C3(C)C)[C@]1(OC(C)=O)CO[C@@H]1C[C@@H]2O [Paclitaxel] |  |  |  | tubulin polymerization (fluorescence, AUC) (Porcine tubulin): caused an increase in the AUC |

From article PMC12389136, “Insights into the Structural Patterns in Human Glioblastoma Cell Line SF268 Activity and ADMET Prediction of Curcumin Derivatives” (Pharmaceutics, 2025)
